From PubChem BioAssay (NCI)
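1) Cells in 96-well plates. 2) Compound, 48 h, 5 concentrations. 3) Linear interpolation between surrounding doses. 4) Unreached endpoint = highest concentration. Abbreviation: GI50, concentration required for 50% inhibition of growth. Definition used: TGI = concentration required for complete inhibition of growth.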

Assays:
Assay in all cases: inhibition of tumour cell growth, NCI panel, 48 h
PC-3 prostate = test system: PC-3 prostate
HS 578T breast = test system: HS 578T breast
EKVX NSCLC = test system: EKVX NSCLC
SN12C renal = test system: SN12C renal
T-47D breast = test system: T-47D breast
LOX IMVI melanoma = test system: LOX IMVI melanoma
HCT-116 colon = test system: HCT-116 colon
A498 renal = test system: A498 renal
KM12 colon = test system: KM12 colon
MDA-MB-435 = test system: MDA-MB-435
SW-620 colon = test system: SW-620 colon
K-562 leukemia = test system: K-562 leukemia
UO-31 renal = test system: UO-31 renal
NCI/ADR-RES ovarian = test system: NCI/ADR-RES ovarian
SF-268 CNS = test system: SF-268 CNS
HCC-2998 colon = test system: HCC-2998 colon
CCRF-CEM leukemia = test system: CCRF-CEM leukemia
NCI-H522 lung = test system: NCI-H522 lung
MDA-MB-231 breast = test system: MDA-MB-231 breast
UACC-257 melanoma = test system: UACC-257 melanoma
MCF7 breast = test system: MCF7 breast
SK-MEL-28 melanoma = test system: SK-MEL-28 melanoma
OVCAR-5 ovarian = test system: OVCAR-5 ovarian
SF-539 CNS = test system: SF-539 CNS
A549 NSCLC = test system: A549 NSCLC
SK-MEL-2 melanoma = test system: SK-MEL-2 melanoma
SK-MEL-5 melanoma = test system: SK-MEL-5 melanoma
OVCAR-3 ovarian = test system: OVCAR-3 ovarian
SNB-19 CNS = test system: SNB-19 CNS
ACHN renal = test system: ACHN renal
HOP-92 NSCLC = test system: HOP-92 NSCLC
RXF 393 renal = test system: RXF 393 renal
HT29 colon = test system: HT29 colon
SR leukemia = test system: SR leukemia
M14 melanoma = test system: M14 melanoma
RPMI-8226 leukemia = test system: RPMI-8226 leukemia
SNB-75 CNS = test system: SNB-75 CNS
TK-10 renal = test system: TK-10 renal
BT-549 breast = test system: BT-549 breast
OVCAR-4 ovarian = test system: OVCAR-4 ovarian
SK-OV-3 ovarian = test system: SK-OV-3 ovarian
HCT-15 colon = test system: HCT-15 colon
MOLT-4 leukemia = test system: MOLT-4 leukemia
CAKI-1 renal = test system: CAKI-1 renal
COLO 205 colon = test system: COLO 205 colon
NCI-H226 lung = test system: NCI-H226 lung
786-0 renal = test system: 786-0 renal
DU-145 prostate = test system: DU-145 prostate
HOP-62 NSCLC = test system: HOP-62 NSCLC
UACC-62 melanoma = test system: UACC-62 melanoma
NCI-H460 lung = test system: NCI-H460 lung
NCI-H23 lung = test system: NCI-H23 lung
U251 CNS = test system: U251 CNS
HL-60(TB) leukemia = test system: HL-60(TB) leukemia
SF-295 CNS = test system: SF-295 CNS
OVCAR-8 ovarian = test system: OVCAR-8 ovarian
MALME-3M melanoma = test system: MALME-3M melanoma
IGROV1 ovarian = test system: IGROV1 ovarian

## O=[N+]([O-])c1ccc(C2CC(c3ccccc3)=Nc3ccccc3S2)cc1 (stereo unspecified)
PC-3 prostate
  GI50: 8.2 µM
  TGI: > 100 µM
HS 578T breast
  GI50: 19.1 µM
  TGI: > 100 µM
EKVX NSCLC
  GI50: > 100 µM
  TGI: > 100 µM
SN12C renal
  GI50: > 100 µM
  TGI: > 100 µM
T-47D breast
  GI50: > 100 µM
  TGI: > 100 µM
LOX IMVI melanoma
  GI50: 3.68 µM
  TGI: > 100 µM
HCT-116 colon
  GI50: 1.98 µM
  TGI: 4.11 µM
A498 renal
  GI50: 59.8 µM
  TGI: > 100 µM
KM12 colon
  GI50: 6.13 µM
  TGI: 97.5 µM
MDA-MB-435
  GI50: > 100 µM
  TGI: > 100 µM
SW-620 colon
  GI50: 2.75 µM
  TGI: 11.1 µM
K-562 leukemia
  GI50: 3.87 µM
  TGI: > 100 µM
UO-31 renal
  GI50: 3.8 µM
  TGI: > 100 µM
NCI/ADR-RES ovarian
  GI50: > 100 µM
  TGI: > 100 µM
SF-268 CNS
  GI50: > 100 µM
  TGI: > 100 µM
HCC-2998 colon
  GI50: > 100 µM
  TGI: > 100 µM
CCRF-CEM leukemia
  GI50: 4.66 µM
  TGI: > 100 µM
NCI-H522 lung
  GI50: > 100 µM
  TGI: > 100 µM
MDA-MB-231 breast
  GI50: > 100 µM
  TGI: > 100 µM
UACC-257 melanoma
  GI50: > 100 µM
  TGI: > 100 µM
MCF7 breast
  GI50: 1.81 µM
  TGI: 6.72 µM
SK-MEL-28 melanoma
  GI50: > 100 µM
  TGI: > 100 µM
OVCAR-5 ovarian
  GI50: > 100 µM
  TGI: > 100 µM
SF-539 CNS
  GI50: > 100 µM
  TGI: > 100 µM
A549 NSCLC
  GI50: > 100 µM
  TGI: > 100 µM
SK-MEL-2 melanoma
  GI50: > 100 µM
  TGI: > 100 µM
SK-MEL-5 melanoma
  GI50: > 100 µM
  TGI: > 100 µM
OVCAR-3 ovarian
  GI50: 11.8 µM
  TGI: > 100 µM
SNB-19 CNS
  GI50: > 100 µM
  TGI: > 100 µM
ACHN renal
  GI50: 88.7 µM
  TGI: > 100 µM
HOP-92 NSCLC
  GI50: 24.5 µM
  TGI: > 100 µM
RXF 393 renal
  GI50: > 100 µM
  TGI: > 100 µM
HT29 colon
  GI50: 7.62 µM
  TGI: > 100 µM
SR leukemia
  GI50: 3.59 µM
  TGI: > 100 µM
M14 melanoma
  GI50: 51 µM
  TGI: > 100 µM
RPMI-8226 leukemia
  GI50: 2.82 µM
  TGI: 8.29 µM
SNB-75 CNS
  GI50: 8.55 µM
  TGI: > 100 µM
TK-10 renal
  GI50: > 100 µM
  TGI: > 100 µM
BT-549 breast
  GI50: > 100 µM
  TGI: > 100 µM
OVCAR-4 ovarian
  GI50: 21.4 µM
  TGI: > 100 µM
SK-OV-3 ovarian
  GI50: > 100 µM
  TGI: > 100 µM
HCT-15 colon
  GI50: 8.03 µM
  TGI: > 100 µM
MOLT-4 leukemia
  GI50: 6.04 µM
  TGI: > 100 µM
CAKI-1 renal
  GI50: > 100 µM
  TGI: > 100 µM
COLO 205 colon
  GI50: > 100 µM
  TGI: > 100 µM
NCI-H226 lung
  GI50: > 100 µM
  TGI: > 100 µM
786-0 renal
  GI50: > 100 µM
  TGI: > 100 µM
DU-145 prostate
  GI50: 5.15 µM
  TGI: > 100 µM
HOP-62 NSCLC
  GI50: 97.1 µM
  TGI: > 100 µM
UACC-62 melanoma
  GI50: > 100 µM
  TGI: > 100 µM
NCI-H460 lung
  GI50: > 100 µM
  TGI: > 100 µM
NCI-H23 lung
  GI50: > 100 µM
  TGI: > 100 µM
U251 CNS
  GI50: 4.7 µM
  TGI: > 100 µM
HL-60(TB) leukemia
  GI50: > 100 µM
  TGI: > 100 µM
SF-295 CNS
  GI50: > 100 µM
  TGI: > 100 µM
OVCAR-8 ovarian
  GI50: 52.4 µM
  TGI: > 100 µM
MALME-3M melanoma
  GI50: > 100 µM
  TGI: > 100 µM
IGROV1 ovarian
  GI50: 13.3 µM
  TGI: > 100 µM
